Measured values as given in ChEMBL document CHEMBL1759887, “Discovery of indole alkaloids with cannabinoid CB1 receptor antagonistic activity” (Bioorg Med Chem Lett, 2011).
pIC50: −log10 of the molar value.

target: Cannabinoid receptor 1 (Homo sapiens, UniProt P21554); assay: Antagonist activity at CB1 receptor transfected in CHO cells expressing apoaequorin as a reporter for G-protein-coupled receptor-mediated calcium signaling by bioluminescence assay; type: functional, cell-based
Sequence (P21554 whole entry): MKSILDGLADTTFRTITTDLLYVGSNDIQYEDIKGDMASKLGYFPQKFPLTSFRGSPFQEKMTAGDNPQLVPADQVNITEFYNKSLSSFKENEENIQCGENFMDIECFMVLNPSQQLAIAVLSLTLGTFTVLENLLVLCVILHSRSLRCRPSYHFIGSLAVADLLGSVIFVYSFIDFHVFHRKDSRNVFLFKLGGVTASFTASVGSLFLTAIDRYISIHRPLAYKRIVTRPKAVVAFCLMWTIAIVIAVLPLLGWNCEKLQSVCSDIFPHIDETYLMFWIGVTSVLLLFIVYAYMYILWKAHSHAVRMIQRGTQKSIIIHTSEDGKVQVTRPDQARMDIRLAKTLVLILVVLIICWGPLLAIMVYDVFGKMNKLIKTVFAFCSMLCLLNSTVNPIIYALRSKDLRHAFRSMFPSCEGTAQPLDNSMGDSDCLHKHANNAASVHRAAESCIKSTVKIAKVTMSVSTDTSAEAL

| Compound | pIC50 |
| --- | --- |
| CC[C@H]1C[C@@H]2C[C@@]3(C(=O)OC)c4[nH]c5ccc(OC)cc5c4[C@@H]4CN([C@@H]13)[C@H]2O4 | 6.70 |
| CC[C@H]1C[C@@H]2C[C@@]3(C(=O)OC)c4[nH]c5ccc(OC)cc5c4[C@H]4O[C@@H]2N([C@@H]4O)[C@@H]13 | 6.85 |
| CC=C1CN(C)C2Cc3c([nH]c4ccccc34)C(c3cc4[nH]c5c(c4cc3OC)CCN3CC4CC(CC)C3C5(C(=O)OC)C4)CC1C2C(=O)OC (stereo not drawn) [VOACAMINE] | 7.39 |
